We go through one compound from ChEMBL document CHEMBL1949608, “Induction of apoptosis in HL-60 cells through the ROS-mediated mitochondrial pathway by ramentaceone from Drosera aliciae” (J Nat Prod, 2012).

Activity calls are given as the source filed them. No cut-off for these calls is given here.

Test [1] relates to HL-60. Nature of the test: Induction of apoptosis in human HL60 cells assessed as increase of caspase-3-mediated Ac-DEVD-pNA cleavage at 10 uM after 12 hrs. The class given is functional, cell-based.
Test [2] relates to HL-60. Nature of the test: Induction of apoptosis in human HL60 cells assessed as decrease in Bcl-2 protein level at 5 to 10 uM after 24 hrs by Western blotting. The class given is functional, cell-based.
Test [3] concerns HL-60. As to the kind of experiment: Induction of apoptosis in human HL60 cells assessed as formation of chromatin condensation at 10 uM after 24 hrs by Hoechst 33342 and propidium iodide staining. The class given is functional, cell-based.
For test [4], the system named is HL-60. As to the kind of experiment: Cell cycle arrest in human HL60 cells assessed as accumulation at sub-G1 phase at 5 to 10 uM using propidium iodide staining by flow cytometry. The class given is functional, cell-based. To be noted: TDE = time-dependent effect.
Test [5] has as its system HL-60. Nature of the test: Cell cycle arrest in human HL60 cells assessed as accumulation at sub-G1 phase at 10 uM after 24 hrs using propidium iodide staining by flow cytometry in presence of N-acetylcysteine. The class given is functional.
In test [6] the test system is HL-60. Nature of the test: Induction of apoptosis in human HL60 cells assessed as increase in cytochrome c release from mitochondria to cytosol after 24 hrs by Western blotting. The class given is functional, cell-based.
Test [7] deals with HL-60. Nature of the test: Cytotoxicity against human HL60 cells after 24 hrs by MTT assay. The class given is functional, cell-based.
Test [8] concerns HL-60. As to the kind of experiment: Cell cycle arrest in human HL60 cells assessed as accumulation at sub-G1 phase after 12 to 24 hrs using propidium iodide staining by flow cytometry. The class given is functional, cell-based.
Test [9] concerns HL-60. Nature of the test: Induction of apoptosis in human HL60 cells assessed as increase of caspase-3-mediated Ac-DEVD-pNA cleavage at 10 uM after >12 hrs. The class given is functional, cell-based.
Test [10] deals with HL-60. As to the kind of experiment: Cell cycle arrest in human HL60 cells assessed as accumulation at sub-G1 phase at 10 uM after 24 hrs using propidium iodide staining by flow cytometry (reference value: 6.6%). The class given is functional.
The test system of test [11] is HL-60. As to the kind of experiment: Induction of apoptosis in human HL60 cells assessed as increase of ROS production using H2DCFDA after 3 hrs by flow cytometry in presence of N-acetylcysteine. The class given is functional, cell-based.
Test [12] deals with HL-60. As to the kind of experiment: Induction of apoptosis in human HL60 cells assessed as increase in Bak protein level after 24 hrs by Western blotting. The class given is functional, cell-based.
The test system of test [13] is HL-60. As to the kind of experiment: Induction of apoptosis in human HL60 cells assessed as increase in Bax protein level after 24 hrs by Western blotting. The class given is functional, cell-based.
The test system of test [14] is HL-60. As to the kind of experiment: Induction of apoptosis in human HL60 cells assessed as formation of apoptotic body at 10 uM after 24 hrs by fluorescence microscopic analysis. The class given is functional, cell-based.
The subject of test [15] is HL-60. As to the kind of experiment: Induction of apoptosis in human HL60 cells assessed as increase of ROS production using H2DCFDA after 3 hrs by flow cytometry. The class given is functional, cell-based.
The subject of test [16] is HL-60. As to the kind of experiment: Cell cycle arrest in human HL60 cells assessed as accumulation at G2/M phase at 10 uM after 24 hrs using propidium iodide staining by flow cytometry. The class given is functional, cell-based.
The test system of test [17] is HL-60. As to the kind of experiment: Induction of apoptosis in human HL60 cells assessed as loss of mitochondrial membrane potential using CMTMRos after 24 hrs by flow cytometry. The class given is functional, cell-based.
In test [18] the test system is HL-60. Nature of the test: Cell cycle arrest in human HL60 cells assessed as accumulation at sub-G1 phase at 10 uM after 12 hrs using propidium iodide staining by flow cytometry (reference value: 5.2%). The class given is functional.
Test [19] deals with HL-60. As to the kind of experiment: Induction of apoptosis in human HL60 cells assessed as formation of membrane blebbing at 10 uM after 24 hrs by fluorescence microscopic analysis. The class given is functional, cell-based.
Test [20] concerns HL-60. Nature of the test: Cell cycle arrest in human HL60 cells assessed as accumulation at sub-G1 phase at 5 uM after 12 hrs using propidium iodide staining by flow cytometry (reference value: 5.2%). The class given is functional.
The test system of test [21] is HL-60. Nature of the test: Cell cycle arrest in human HL60 cells assessed as accumulation at sub-G1 phase at 5 uM after 24 hrs using propidium iodide staining by flow cytometry (reference value: 6.6%). The class given is functional.
Test [22] concerns HL-60. Nature of the test: Cell cycle arrest in human HL60 cells assessed as accumulation at G0/G1 phase at 10 uM after 24 hrs using propidium iodide staining by flow cytometry. The class given is functional, cell-based.
Test [23] relates to HL-60. Nature of the test: Induction of apoptosis in human HL60 cells assessed as formation of cell shrinkage at 10 uM after 24 hrs by fluorescence microscopic analysis. The class given is functional, cell-based.

For `Cc1cc(O)c2c(c1)C(=O)C=CC2=O` [RAMENTACEONE], the result in the test on HL-60 [1], in the test on HL-60 [2], with HL-60 [3], in the test with HL-60 [14], in the test with HL-60 [16] and in the test on HL-60 [19] was Active. Besides, the outcome in the test on HL-60 [22] and in the test on HL-60 [23] was Active. Further, the Activity result in the test on HL-60 [4] was “tde”; in the test on HL-60 [5], 12.3%; in the test with HL-60 [6], “Dose-dependent effect”; in the test with HL-60 [7], “Dose-dependent effect”; with HL-60 [8] it was “Dose-dependent effect”; with HL-60 [10], 27.5%. Besides, the Activity entry with HL-60 [12] is “Dose-dependent effect”; in the test with HL-60 [13] it was “Dose-dependent effect”; in the test with HL-60 [15], “Dose-dependent effect”; with HL-60 [17] it was “Dose-dependent effect”; in the test on HL-60 [18], 17.1%; in the test with HL-60 [20], 10.3%. The Activity in the test on HL-60 [21] was found to be 12.6%. For the same compound, it took 8.75 µM to reach half-maximal inhibition in the test with HL-60 [7] (HL-60, 24 h) (IC50). Further, the outcome with HL-60 [9] and in the test on HL-60 [11] was inactive.
